In EP0414894A1 (priority 1989, dated 1990):
“And” between values parts separate entries of the source, which are not always exact repeats. Equal entries are not always repeated. Where two headings read alike, the source gives them in different places.

Assays:
[1] = tested on: Hepatitis B virus; test: virulicidal activity, HBsAg titer in blood serum
Description: table ratio instead of the test composition.

[2] = tested on: Influenza A viruses; test: virulicidal activity, virus titer in allantoic fluid by hemagglutination-inhibition
[3] = tested on: pig ascarid eggs; test: microbe, parasite or virus in culture
[4] = tested on: Escherichia coli; test: microbe, parasite or virus in culture; format: cell-based; details: for killing at 0.2 %: read-out: Death of micro-organisms, % E.coli
[5] = tested on: Staphylococcus aureus; test: microbe, parasite or virus in culture; format: cell-based; details: for killing at 0.2 %: read-out: Death of micro-organisms, % S.aureus
[6] = tested on: poliomyelitis virus
[7] = tested on: Meningopneumonia virus; design: species or system meningopneumonia pathogene/MP strain/
[8] = 24 h, read-out: Death of ascaridal eggs, % after 24 hours
[9] = 48 h, read-out: Death of ascaridal eggs, % after 48 hours
[10] = concentration 1.0 % by mass, 30 min
[11] = concentration 1.0 % by mass, 60 min
[12] = concentration 2.0 % by mass, 30 min
[13] = concentration 2.0 % by mass, 60 min

Compound | Death of micro-organisms, % E.coli [4] | Death of micro-organisms, % S.aureus [5] | Virulicidal activity (%) to poliomyelitis virus under exposure of 30 min [6] | Virulicidal activity (%) to poliomyelitis virus under exposure of 60 min [6] | killing at 0.2 % ([4]; Escherichia coli) | killing at 0.2 % ([5]; Staphylococcus aureus) | Virulicidal activity (%) to poliomyelitis virus under exposure of 30 min [6, 10] | Virulicidal activity (%) to poliomyelitis virus under exposure of 60 min [6, 11] | Virulicidal activity (%) to poliomyelitis virus under exposure of 30 min [6, 12] | Virulicidal activity (%) to poliomyelitis virus under exposure of 60 min [6, 13] | other results
O=[N+]([O-])c1ccc(C(O)C(CO)N=P(Oc2ccccc2)(Oc2ccccc2)Oc2ccccc2)cc1 (stereo not drawn) [Example 21, triphenoxyphosphazo-1-para-nitrophenyl-1,3-propanol] |  |  |  |  |  |  |  |  |  |  | Virulicidal activity (%) under exposure 30 min ([1]; concentration 1.0 % by mass): 50.0%; Virulicidal activity (%) under exposure 60 min ([1]; concentration 1.0 % by mass): 87.5%; Virulicidal activity (%) under exposure 30 min ([1]; concentration 2.0 % by mass): 100,0%; Virulicidal activity (%) under exposure 60 min ([1]; concentration 2.0 % by mass): 100,0%; Virulicidal activity (%) under exposure 30 min ([2]; concentration 1.0 % by mass): 87.5%; Virulicidal activity (%) under exposure 60 min ([2]; concentration 1.0 % by mass): 100.0%
O=[N+]([O-])c1ccc(C(O)C(CO)N=P(Nc2ccccc2)(Nc2ccccc2)Nc2ccccc2)cc1 (stereo not drawn) [Example 29, trianilidophosphazo-1-para-nitrophenyl-1,3-propanediol] |  |  |  |  |  |  |  |  |  |  | killing at 2 % [3, 8]: 97.6%; killing at 2 % [3, 9]: 100%
O=[N+]([O-])c1ccc(C(O)C(CO)N=P(Cl)(Oc2ccccc2)Oc2ccccc2)cc1 (stereo not drawn) [Example 36, diphenoxychlorophosphazo-1-nitrophenyl-1,3-dihydroxypropyl] | 100.0% | 90.0% | 50.0% and 90.0% | 80.0% and 90.0% |  |  |  |  |  |  | 
O=[N+]([O-])c1ccc(C(O)C(CO)N=P(Cl)(Oc2ccc(Cl)cc2)Oc2ccc(Cl)cc2)cc1 (stereo not drawn) [Example 37, di-para-chlorophenoxychlorophosphazo-1-para-nitrophenyl-1,3-dihydroxyisopropyl] | 100.0% | 100.0% | 60.0% and 90.0% | 90.0% and 100.0% |  |  |  |  |  |  | 
O=[N+]([O-])c1ccc(C(O)C(CO)N=P(Cl)(Cl)Oc2ccc(Cl)cc2)cc1 (stereo not drawn) [Example 39, para-chlorophenoxydichlorophosphazo-1-para-nitrophenyl-1,3-dihydroxyisopropyl] | 100.0% | 100.0% | 70.0% and 95.0% | 90.0% and 100.0% |  |  |  |  |  |  | 
Cc1ccc(OP(=NC(CO)C(O)c2ccc([N+](=O)[O-])cc2)(Oc2ccc(C)cc2)Oc2ccc(C)cc2)cc1 (stereo not drawn) [Example 40, tri-para-methylphenoxy-1-para-nitrophenyl-1,3-dihydroxyisopropyl] |  |  |  |  | 90% | 70% | 50.0% | 70.0% | 80.0% | 90.0% | 
O=[N+]([O-])c1ccc(C(O)C(CO)N=P(Oc2ccc(Cl)cc2)(Oc2ccc(Cl)cc2)Oc2ccc(Cl)cc2)cc1 (stereo not drawn) [Example 41, tri-para-chlorophenoxyphosphazo-1-para-nitrophenyl-1,3-dihydroxyisopropyl] |  |  |  |  | 100% | 90% | 50.0% | 80.0% | 90.0% | 100.0% | 
CNC(=S)S [carbathione, dihydrate, reference compound] |  |  |  |  |  |  |  |  |  |  | killing at 2 % [3, 8]: 60%; killing at 2 % [3, 9]: 80%
O=S(=O)(NCl)c1ccccc1 [sodium N-chlorobenzenesulfamide, reference compound] |  |  |  |  | 100% | 90% | 9.0% | 25.0% | 12.5% | 50.0% | killing at 0.5 % ([4]; Escherichia coli, read-out: Death of micro-organisms, % Escherichia coli): 100%; killing at 0.5 % ([5]; Staphylococcus aureus, read-out: Death of micro-organisms, % Staphylo-cocus aureus): 100%; Virulicidal activity (%) under exposure 30 min ([1]; concentration 1.0 % by mass): 9.0%; Virulicidal activity (%) under exposure 60 min ([1]; concentration 1.0 % by mass): 25.0%; Virulicidal activity (%) under exposure 30 min ([1]; concentration 2.0 % by mass): 12.5%; Virulicidal activity (%) under exposure 60 min ([1]; concentration 2.0 % by mass): 50.0%; Virulicidal activity (%) under exposure 60 min [7]: 25.0% and 50.0%; Virulicidal activity (%) under exposure 30 min ([2]; concentration 1.0 % by mass): 12.5% and 22.0%; Virulicidal activity (%) under exposure 60 min ([2]; concentration 1.0 % by mass): 25.0%; Virulicidal activity (%) under exposure 30 min ([2]; concentration 2.0 % by mass): 25.0% and 25.1%; Virulicidal activity (%) under exposure 60 min ([2]; concentration 2.0 % by mass): 50.0%
